Source: patent US6677308B1, “Meta-substituted phenylene sulphonamide derivatives” (G. D. Searle & Co., priority 1996, dated 2004)
Counter-ions that a name gives are not always drawn. Like-named read-outs stand apart in the source and are kept apart here.

Legend:
[1] = target: T1, Human fibrinogen receptor (αIIbβ3) (Homo sapiens, UniProt P05106+P08514); experiment: Purified IIb/IIIa receptor assay (solid phase receptor assay, competition with biotinylated vitronectin); type: binding; conditions: purified human αIIbβ3 from platelets; 1 nM biotinylated vitronectin; highest concentration 1.0×10^−4 M
T1 construct: Human fibrinogen receptor (αIIbβ3) was purified from outdated platelets; from tissue; host or cells: outdated (human) platelets
Description: Purified IIb/IIIa Receptor Assay
Human fibrinogen receptor (αIIbβ3) was purified from outdated platelets. (Pytela, R., Pierschbacher, M. D., Argraves, S., Suzuki, S., and Rouslahti, E. “Arginine-Glycine-Aspartic acid adhesion receptors”, Methods in Enzymology 144(1987):475-489.) Human vitronectin was purified from fresh frozen plasma as described in Yatohgo, T., Izumi, M., Kashiwagi, H., and Hayashi, M., “Novel purification of vitronectin from human plasma by heparin affinity chromatography,” Cell Structure and Function 13(1988):281-292. Biotinylated human vitronectin was prepared by coupling NHS-biotin from Pierce Chemical Company (Rockford, Ill.) to purified vitronectin as previously described. (Charo, I. F., Nannizzi, L., Phillips, D. R., Hsu, M. A., Scarborough, R. M., “Inhibition of fibrinogen binding to GP IIb/IIIa by a GP IIIa peptide”, J. Biol. Chem. 266(3)(1991): 1415-1421.) Assay buffer, OPD substrate tablets, and RIA grade BSA were obtained from Sigma (St. Louis, Mo.). Anti-biotin antibody was obtained from Calbiochem (La Jolla, Calif.). Linbro microtiter plates were obtained from Flow Labs (McLean, Va.). ADP reagent was obtained from Sigma (St. Louis, Mo.).
(§1) Solid Phase Receptor Assays
This assay is essentially the same reported in Niiya, K., Hodson, E., Bader, R., Byers-Ward, V. Koziol, J. A., Plow, E. F. and Ruggeri, Z. M., “Increased surface expression of the membrane glycoprotein IIb/IIIa complex induced by platelet activation: Relationships to the binding of fibrinogen and platelet aggregation”, Blood 70(1987):475-483. The purified human fibrinogen receptor (αIIbβ3) was diluted from stock solutions to 1.0 μg/mL in Tris-buffered saline containing 1.0 mM Ca^++, Mg^++, and Mn^++, pH 7.4 (TBS^+++). The diluted receptor was immediately transferred to Linbro microtiter plates at 100 μL/well (100 ng receptor/well). The plates were sealed and incubated overnight at 4° C. to allow the receptor to bind to the wells. All remaining steps were at room temperature. The assay plates were emptied and 200 μL of 1% RIA grade BSA in TBS^+++ (TBS^+++/BSA) were added to block exposed plastic surfaces. Following a 2 hour incubation, the assay plates were washed with TBS^+++ using a 96 well plate washer. Logarithmic serial dilution of the test compound and controls were made starting at a stock concentration of 2 mM and using 2 nM biotinylated vitronectin in TBS^+++/BSA as the diluent. This premixing of labeled ligand with test (or control) ligand, and subsequent transfer of 50 μL aliquots to the assay plate was carried out with a CETUS Propette robot; the final concentration of the labeled ligand was 1 nM and the highest concentration of test compound was 1.0×10^−4 M. The competition occurred for two hours after which all wells were washed with a plate washer as before. Affinity purified horseradish peroxidase labeled goat anti-biotin antibody was diluted 1:3000 in TBS^+++/BSA and 125 μL were added to each well. After 30 minutes, the plates were washed and incubated with […] substrate in 100 mM/L citrate buffer, pH 5.0. The plate was read with a microtiter plate reader at a wavelength of 450 nm and when the maximum-binding control wells reached an absorbance of about 1.0, the final A450 were recorded for analysis. The data were analyzed using a macro written for use with the EXCEL™ spreadsheet program. The mean, standard deviation, and %CV were determined for duplicate concentrations. The mean A450 values were normalized to the mean of four maximum-binding controls (no competitor added) (B-MAX). The normalized values were subjected to a four parameter curve fit algorithm, [Robard et al., Int.

[2] = target: T2, Human vitronectin receptor (αvβ3) (Homo sapiens, UniProt P05106+P06756); experiment: Vitronectin adhesion assay (solid phase receptor assay, competition with biotinylated vitronectin); type: binding
T2 construct: Human vitronectin receptor (αvβ3) was purified from human placenta as previously described; from tissue; host or cells: human placenta
Experimental: Vitronectin Adhesion Assay
Human vitronectin receptor (αvβ3) was purified from human placenta as previously described [Pytela et al., Methods in Enzymology, 144:475-489 (1987)]. Human vitronectin was purified from fresh frozen plasma as previously described [Yatohgo et al., Cell Structure and Function, 13:281-292 (1988)]. Biotinylated human vitronectin was prepared by coupling NHS-biotin from Pierce Chemical Company (Rockford, Ill.) to purified vitronectin as previously described [Charo et al., J. Biol. Chem., 266(3):1415-1421 (1991)]. Assay buffer, OPD substrate tablets, and RIA grade BSA were obtained from Sigma (St. Louis, Mo.). Anti-biotin antibody was obtained from Calbiochem (La Jolla, Calif.). Linbro microtiter plates were obtained from Flow Labs (McLean, Va.). ADP reagent was obtained from Sigma (St. Louis, Mo.).
as §1
This assay was essentially the same as previously reported [Niiya et al., Blood, 70:475-483 (1987)]. The purified human vitronectin receptor (αvβ3) was diluted from stock solutions to 1.0 μg/mL in Tris-buffered saline containing 1.0 mM Ca^++, Mg^++, and Mn^++, pH 7.4 (TBS^+++). The diluted receptor was immediately transferred to Linbro microtiter plates at 100 μL/well (100 ng receptor/well). The plates were sealed and incubated overnight at 4° C. to allow the receptor to bind to the wells. All remaining steps were at room temperature. The assay plates were emptied and 200 μL of 1% RIA grade BSA in TBS^+++ (TBS^+++/BSA) were added to block exposed plastic surfaces. Following a 2 hour incubation, the assay plates were washed with TBS^+++ using a 96 well plate washer. Logarithmic serial dilution of the test compound and controls were made starting at a stock concentration of 2 mM and using 2 nM biotinylated vitronectin in TBS^+++/BSA as the diluent. This premixing of labeled ligand with test (or control) ligand, and subsequent transfer of 50 μL aliquots to the assay plate was carried out with a CETUS Propette robot; the final concentration of the labeled ligand was 1 nM and the highest concentration of test compound was 1.0×10^−4 M. The competition occurred for two hours after which all wells were washed with a plate washer as before. Affinity purified horseradish peroxidase labeled goat anti-biotin antibody was diluted 1:3000 in TBS^+++/BSA and 125 μL were added to each well. After 30 minutes, the plates were washed and incubated with OPD/H2O2 substrate in 100 mM/L Citrate buffer, pH 5.0. The plate was read with a microtiter plate reader at a wavelength of 450 nm and when the maximum-binding control wells reached an absorbance of about 1.0, the final A450 were recorded for analysis. The data were analyzed using a macro written for use with the EXCEL™ spreadsheet program. The mean, standard deviation, and %CV were determined for duplicate concentrations. The mean A450 values were normalized to the mean of four maximum-binding controls (no competitor added) (B-MAX). The normalized values were subjected to a four parameter curve fit algorithm [Rodbard et al., Int.

[3] = tested on: Human platelet rich plasma; experiment: Human platelet rich plasma assay (ADP induced platelet aggregation); type: cell-based; conditions: concentration of half-maximal inhibition, read-out: Human PRP
Experimental: Human Platelet Rich Plasma Assays
Healthy aspirin free donors were selected from a pool of volunteers. The harvesting of platelet rich plasma and subsequent ADP induced platelet aggregation assays were performed as described in Zucker, M. B., “Platelet Aggregation Measured by the Photometric Method”, Methods in Enzymology 169(1989):117-133. Standard venipuncture techniques using a butterfly allowed the withdrawal of 45 mL of whole blood into a 60 mL syringe containing 5 mL of 3.8% trisodium citrate. Following thorough mixing in the syringe, the anti-coagulated whole blood was transferred to a 50 mL conical polyethylene tube. The blood was centrifuged at room temperature for 12 minutes at 200×g to sediment non-platelet cells. Platelet rich plasma was removed to a polyethylene tube and stored at room temperature until used. Platelet poor plasma was obtained from a second centrifugation of the remaining blood at 2000×g for 15 minutes. Platelet counts are typically 300,000 to 500,000 per microliter. Platelet rich plasma (0.45 mL) was aliquoted into siliconized cuvettes and stirred (1100 rpm) at 37° C. for 1 minute prior to adding 50 uL of pre-diluted test compound. After 1 minute of mixing, aggregation was initiated by the addition of 50 uL of 200 uM ADP. Aggregation was recorded for 3 minutes in a Payton dual channel aggregometer (Payton Scientific, Buffalo, N.Y.). […]

[4] = purified human αvβ3 from placenta, 1 nM biotinylated vitronectin, highest concentration 1.0×10^−4 M, read-out: AvB3 IC50

| Molecule | IC50 [1] | IC50 [2, 4] | IC50 ([2]; positive control included on each plate, read-out: IC50 (αvβ3 antagonist, positive control)) | IC50 [3] |
| --- | --- | --- | --- | --- |
| C#CC(CC(=O)O)NS(=O)(=O)c1cccc(NC(=O)c2cccc(NC(=N)N)c2)c1 (stereo not drawn) [Example 8, 3-[[[3-[[[3-[(Aminoiminomethyl)amino]phenyl]-carbonyl]amino]phenyl]sulfonyl]amino]-4-pentynoic Acid, Trifluoroacetate Salt] | 38.2 nM | 11.3 nM |  |  |
| N=C(N)Nc1cccc(S(=O)(=O)Nc2cccc(S(=O)(=O)NC(CC(=O)O)c3ccccc3)c2)c1 (stereo not drawn) [Example 9, β-[[[3-[[[3-[(Aminoiminomethyl)amino]phenyl]-sulfonyl]amino]phenyl]sulfonyl]amino]phenyl-propanoic Acid, Trifluoroacetate Salt] | 93.6 nM | 29.3 nM |  |  |
| C#C[C@H](CC(=O)O)NS(=O)(=O)c1cccc(NC(=O)c2cccc(NC3=NCCN3)c2)c1 [Example 7, 3S-[[[3-[[[3-[(4,5-Dihydro-1H-imidazol-2-yl)amino]-phenyl]carbonyl]amino]phenyl]sulfonyl]amino]-4-pentynoic Acid, Trifluoroacetate Salt] | 418 nM | 15 nM |  |  |
| N=C(N)Nc1cccc(C(=O)Nc2cccc(S(=O)(=O)N3CCCCC3CC(=O)O)c2)c1 (stereo not drawn) [Example 6, 1-[[3-[[[3-[(Aminoiminomethyl)amino]phenyl]carbonyl]-amino]phenyl]sulfonyl]piperidine-2-acetic Acid, Trifluoroacetate Salt] | 3920 nM | 183 nM |  |  |
| N=C(N)Nc1cccc(C(=O)Nc2cccc(S(=O)(=O)NC(CC(=O)O)c3cccnc3)c2)c1 (stereo not drawn) [Example 5, β-[[[3-[[[3-[(Aminoiminomethyl)amino]phenyl]-carbonyl]amino]phenyl]sulfonyl]amino]pyridine-3-propanoic Acid, tris(Trifluoroacetate) Salt] | 24.7 nM | 4.66 nM |  |  |
| β-[[2-[[5-[(aminoiminomethyl)amino]-1-oxopentyl]amino]-1-oxoethyl]amino]-3-pyridinepropanoic acid [reference compound] |  |  | 3 to 10 nM |  |
| N=C(N)Nc1cccc(C(=O)Nc2cccc(S(=O)(=O)NC(CC(=O)O)c3ccccc3)c2)c1 (stereo not drawn) [Example 1, β-[[[3-[[[3-[(Aminoiminomethyl)amino]phenyl]carbonyl]amino]phenyl]sulfonyl]amino]-benzenepropanoic Acid, Trifluoroacetate Salt] | 11.3 nM | 1.66 nM |  | > 200000 nM |
| C=CC(CC(=O)O)NS(=O)(=O)c1cccc(NC(=O)c2cccc(NC(=N)N)c2)c1 (racemic) [Example 3, (±) 3-[[[3-[[[3-[(Aminoiminomethyl)amino]phenyl]-carbonyl]amino]phenyl]sulfonyl]amino]-4-pentenoic Acid, Trifluoroacetate Salt] | 11.6 nM | 5.34 nM |  |  |
| N=C(N)Nc1cccc(C(=O)Nc2cccc(S(=O)(=O)NC(CC(=O)O)c3cc(Cl)cc(Cl)c3)c2)c1 (racemic) [Example 4, (±) β-[[[3-[[[3-[(Aminoiminomethyl)amino]phenyl]-carbonyl]amino]phenyl]sulfonyl]amino]-3,5-dichlorobenzene Propanoic Acid, Trifluoroacetate Salt] | 987 nM | 659 nM |  |  |
